In ChEMBL document CHEMBL4507291 (2021):

Tests used:
[1] = target: Sigma intracellular receptor 2 (Homo sapiens, UniProt Q5BJF2); assay: GPCRScan assay: inhibition of Sigma 2; design: radioligand conc. used [nm] 5.0, parental cells HEKT
[2] = tested on: Tyrosine-protein kinase ABL1 (Homo sapiens), P00519 [Y253F]
[3] = target: Cyclin-dependent kinase 11B (Homo sapiens) (UniProt P21127)
[4] = target: Cyclin-dependent kinase 11A (Homo sapiens) (UniProt Q9UQ88)
[5] = target: Cyclin-dependent kinase 5 (Homo sapiens) (UniProt Q00535)
[6] = target: Cyclin-dependent kinase-like 1 (Homo sapiens) (UniProt Q00532)
Chain of Cyclin-dependent kinase-like 1 (Homo sapiens) (Q00532 whole entry): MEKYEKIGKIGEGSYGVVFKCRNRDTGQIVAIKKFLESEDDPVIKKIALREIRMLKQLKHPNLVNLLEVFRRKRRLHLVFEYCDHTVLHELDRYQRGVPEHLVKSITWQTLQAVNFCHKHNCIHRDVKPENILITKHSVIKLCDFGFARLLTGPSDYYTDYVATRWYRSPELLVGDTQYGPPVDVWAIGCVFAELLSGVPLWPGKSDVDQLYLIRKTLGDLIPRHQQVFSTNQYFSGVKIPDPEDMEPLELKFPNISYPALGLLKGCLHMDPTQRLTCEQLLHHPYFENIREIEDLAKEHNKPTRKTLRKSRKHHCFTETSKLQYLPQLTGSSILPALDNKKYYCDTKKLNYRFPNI

[7] = target: Dual specificity protein kinase CLK1 (Homo sapiens) (UniProt P49759)
Chain of Dual specificity protein kinase CLK1 (Homo sapiens) (P49759 whole entry, looked up, canonical isoform): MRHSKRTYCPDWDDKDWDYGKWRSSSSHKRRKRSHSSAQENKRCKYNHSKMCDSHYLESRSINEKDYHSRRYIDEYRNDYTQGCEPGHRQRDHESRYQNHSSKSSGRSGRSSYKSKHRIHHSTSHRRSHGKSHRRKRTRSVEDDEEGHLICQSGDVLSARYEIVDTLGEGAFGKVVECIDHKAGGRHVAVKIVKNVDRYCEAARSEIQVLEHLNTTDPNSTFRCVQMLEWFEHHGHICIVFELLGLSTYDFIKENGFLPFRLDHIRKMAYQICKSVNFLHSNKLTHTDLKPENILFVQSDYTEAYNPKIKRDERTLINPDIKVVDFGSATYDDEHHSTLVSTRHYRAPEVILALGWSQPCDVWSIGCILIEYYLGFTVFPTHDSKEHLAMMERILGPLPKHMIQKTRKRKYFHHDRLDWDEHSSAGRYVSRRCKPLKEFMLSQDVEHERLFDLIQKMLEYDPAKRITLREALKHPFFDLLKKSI

[8] = target: Casein kinase I isoform alpha-like (Homo sapiens) (UniProt Q8N752)
Chain of Casein kinase I isoform alpha-like (Homo sapiens) (Q8N752 whole entry, canonical isoform): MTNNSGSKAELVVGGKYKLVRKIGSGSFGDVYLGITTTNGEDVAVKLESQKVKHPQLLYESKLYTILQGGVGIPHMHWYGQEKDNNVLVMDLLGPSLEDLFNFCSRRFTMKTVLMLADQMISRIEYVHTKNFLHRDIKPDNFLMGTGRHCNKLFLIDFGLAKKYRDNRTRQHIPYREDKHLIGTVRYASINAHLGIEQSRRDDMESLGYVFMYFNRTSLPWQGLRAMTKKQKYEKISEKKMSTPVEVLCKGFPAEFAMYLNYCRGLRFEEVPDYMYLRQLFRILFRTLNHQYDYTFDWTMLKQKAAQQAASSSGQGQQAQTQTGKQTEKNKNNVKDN

[9] = tested on: Epidermal growth factor receptor (Homo sapiens), P00533 [L861Q]
[10] = target: Ephrin type-A receptor 2 (Homo sapiens) (UniProt P29317)
Chain of Ephrin type-A receptor 2 (Homo sapiens) (P29317 whole entry): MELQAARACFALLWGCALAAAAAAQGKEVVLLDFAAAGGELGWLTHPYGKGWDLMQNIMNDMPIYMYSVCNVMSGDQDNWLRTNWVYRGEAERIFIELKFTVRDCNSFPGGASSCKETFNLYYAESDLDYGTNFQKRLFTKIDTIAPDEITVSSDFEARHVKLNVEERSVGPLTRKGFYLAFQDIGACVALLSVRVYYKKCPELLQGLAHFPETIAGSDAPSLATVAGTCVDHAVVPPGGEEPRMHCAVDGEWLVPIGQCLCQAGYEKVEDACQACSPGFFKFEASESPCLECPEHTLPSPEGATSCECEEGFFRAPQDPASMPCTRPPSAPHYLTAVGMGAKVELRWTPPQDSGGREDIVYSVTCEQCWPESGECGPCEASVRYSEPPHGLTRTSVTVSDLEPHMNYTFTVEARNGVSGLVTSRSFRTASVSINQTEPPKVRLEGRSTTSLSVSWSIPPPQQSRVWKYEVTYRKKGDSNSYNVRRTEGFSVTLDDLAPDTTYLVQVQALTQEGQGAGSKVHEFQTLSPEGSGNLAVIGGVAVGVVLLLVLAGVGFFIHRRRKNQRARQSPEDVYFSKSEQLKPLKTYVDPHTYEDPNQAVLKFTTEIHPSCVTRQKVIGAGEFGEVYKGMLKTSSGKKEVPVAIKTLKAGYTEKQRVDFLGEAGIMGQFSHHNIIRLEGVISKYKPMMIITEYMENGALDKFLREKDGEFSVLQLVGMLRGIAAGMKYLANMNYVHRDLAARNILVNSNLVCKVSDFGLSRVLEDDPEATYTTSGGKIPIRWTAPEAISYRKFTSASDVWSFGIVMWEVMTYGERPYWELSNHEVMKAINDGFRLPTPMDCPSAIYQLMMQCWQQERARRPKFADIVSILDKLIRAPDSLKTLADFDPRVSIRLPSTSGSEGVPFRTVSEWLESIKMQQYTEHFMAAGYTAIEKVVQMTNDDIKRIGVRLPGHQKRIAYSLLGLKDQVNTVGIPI

[11] = target: Receptor tyrosine-protein kinase erbB-3 (Homo sapiens) (UniProt P21860)
Chain of Receptor tyrosine-protein kinase erbB-3 (Homo sapiens) (P21860 whole entry): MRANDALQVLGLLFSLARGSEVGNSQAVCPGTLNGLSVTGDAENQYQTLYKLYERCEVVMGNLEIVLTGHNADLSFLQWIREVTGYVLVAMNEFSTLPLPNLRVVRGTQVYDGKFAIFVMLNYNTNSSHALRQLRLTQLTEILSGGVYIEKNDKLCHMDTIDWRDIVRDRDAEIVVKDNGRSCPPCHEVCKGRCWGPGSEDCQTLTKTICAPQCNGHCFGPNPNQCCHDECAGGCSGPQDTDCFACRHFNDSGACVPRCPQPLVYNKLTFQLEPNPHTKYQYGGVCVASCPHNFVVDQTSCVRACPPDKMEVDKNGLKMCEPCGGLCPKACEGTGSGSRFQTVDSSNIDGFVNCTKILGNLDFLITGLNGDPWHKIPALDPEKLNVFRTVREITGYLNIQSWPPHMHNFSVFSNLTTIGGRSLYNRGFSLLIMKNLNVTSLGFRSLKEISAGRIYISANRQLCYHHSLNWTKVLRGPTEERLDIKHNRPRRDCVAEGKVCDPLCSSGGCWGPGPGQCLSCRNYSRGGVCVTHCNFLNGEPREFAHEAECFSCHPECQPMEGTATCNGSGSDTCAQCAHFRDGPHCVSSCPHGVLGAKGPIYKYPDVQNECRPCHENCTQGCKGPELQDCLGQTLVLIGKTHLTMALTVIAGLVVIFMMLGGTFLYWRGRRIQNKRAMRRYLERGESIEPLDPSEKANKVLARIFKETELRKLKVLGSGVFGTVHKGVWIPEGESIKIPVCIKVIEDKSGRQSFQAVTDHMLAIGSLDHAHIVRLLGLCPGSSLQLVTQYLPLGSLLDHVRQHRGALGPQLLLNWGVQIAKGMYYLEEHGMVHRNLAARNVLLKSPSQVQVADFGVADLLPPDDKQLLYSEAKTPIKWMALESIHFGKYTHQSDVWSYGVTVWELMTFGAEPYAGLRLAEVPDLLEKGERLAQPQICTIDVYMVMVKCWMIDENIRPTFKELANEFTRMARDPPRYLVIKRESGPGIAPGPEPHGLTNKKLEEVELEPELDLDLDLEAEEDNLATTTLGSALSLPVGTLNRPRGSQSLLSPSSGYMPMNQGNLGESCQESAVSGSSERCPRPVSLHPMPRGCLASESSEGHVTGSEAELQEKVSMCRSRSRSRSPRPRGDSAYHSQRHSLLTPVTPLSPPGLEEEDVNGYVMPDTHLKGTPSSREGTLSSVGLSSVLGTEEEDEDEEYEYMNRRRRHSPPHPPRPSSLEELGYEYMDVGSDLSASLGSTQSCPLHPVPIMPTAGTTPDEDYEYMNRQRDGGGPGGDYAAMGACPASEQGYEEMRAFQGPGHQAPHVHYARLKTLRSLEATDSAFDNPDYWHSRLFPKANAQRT

[12] = target: Mitogen-activated protein kinase 7 (Homo sapiens) (UniProt Q13164)
Chain of Mitogen-activated protein kinase 7 (Homo sapiens) (Q13164 2-816 limits assumed): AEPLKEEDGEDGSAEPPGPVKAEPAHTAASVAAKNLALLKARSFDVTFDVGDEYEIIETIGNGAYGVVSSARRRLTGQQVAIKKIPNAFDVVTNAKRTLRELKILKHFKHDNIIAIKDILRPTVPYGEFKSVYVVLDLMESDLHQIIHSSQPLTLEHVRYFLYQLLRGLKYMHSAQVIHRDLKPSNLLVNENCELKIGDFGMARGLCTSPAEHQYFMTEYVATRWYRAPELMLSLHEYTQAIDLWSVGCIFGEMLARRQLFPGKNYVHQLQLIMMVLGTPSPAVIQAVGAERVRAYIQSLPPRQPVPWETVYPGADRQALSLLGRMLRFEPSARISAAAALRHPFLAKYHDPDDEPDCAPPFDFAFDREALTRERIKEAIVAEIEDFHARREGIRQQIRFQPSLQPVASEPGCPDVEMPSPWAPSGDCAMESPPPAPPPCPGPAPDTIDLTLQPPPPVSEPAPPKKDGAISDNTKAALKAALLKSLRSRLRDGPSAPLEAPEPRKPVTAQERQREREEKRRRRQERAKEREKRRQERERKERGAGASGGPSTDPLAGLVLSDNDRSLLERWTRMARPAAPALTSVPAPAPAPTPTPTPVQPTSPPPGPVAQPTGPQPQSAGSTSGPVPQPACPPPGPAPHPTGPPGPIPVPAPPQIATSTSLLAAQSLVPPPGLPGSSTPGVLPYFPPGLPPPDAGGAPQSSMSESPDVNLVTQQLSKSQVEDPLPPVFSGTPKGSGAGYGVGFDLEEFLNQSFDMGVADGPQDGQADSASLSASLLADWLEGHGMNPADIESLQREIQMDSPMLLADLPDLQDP

[13] = target: Receptor-type tyrosine-protein kinase FLT3 (Homo sapiens) (UniProt P36888)
[14] = target: Glycogen synthase kinase-3 beta (Homo sapiens) (UniProt P49841)
[15] = target: T1, Inhibitor of nuclear factor kappa-B kinase subunit beta (Homo sapiens) (UniProt O14920)
T1 sequence (whole entry): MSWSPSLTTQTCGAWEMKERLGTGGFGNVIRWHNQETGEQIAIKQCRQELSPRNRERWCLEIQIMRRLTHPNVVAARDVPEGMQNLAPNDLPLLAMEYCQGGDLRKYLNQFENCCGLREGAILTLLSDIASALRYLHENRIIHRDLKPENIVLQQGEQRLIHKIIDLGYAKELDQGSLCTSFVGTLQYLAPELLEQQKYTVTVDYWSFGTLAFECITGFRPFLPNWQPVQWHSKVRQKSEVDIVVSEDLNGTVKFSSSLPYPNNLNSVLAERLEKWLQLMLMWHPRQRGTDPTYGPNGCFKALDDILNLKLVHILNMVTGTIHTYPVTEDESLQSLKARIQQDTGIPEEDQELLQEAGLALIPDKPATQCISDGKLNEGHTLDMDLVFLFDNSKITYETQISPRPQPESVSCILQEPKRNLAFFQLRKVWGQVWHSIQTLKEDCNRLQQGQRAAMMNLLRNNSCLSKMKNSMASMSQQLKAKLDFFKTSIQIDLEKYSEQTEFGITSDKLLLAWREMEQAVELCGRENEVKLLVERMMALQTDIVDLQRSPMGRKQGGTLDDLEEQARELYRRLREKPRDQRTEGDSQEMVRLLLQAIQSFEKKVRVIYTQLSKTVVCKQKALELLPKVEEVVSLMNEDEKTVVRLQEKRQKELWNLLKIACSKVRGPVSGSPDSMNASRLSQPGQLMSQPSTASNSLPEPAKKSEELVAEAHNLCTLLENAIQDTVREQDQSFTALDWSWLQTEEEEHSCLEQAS

[16] = tested on: Mast/stem cell growth factor receptor Kit (Homo sapiens), P10721 [A829P]
[17] = target: Microtubule-associated serine/threonine-protein kinase 1 (Homo sapiens) (UniProt Q9Y2H9)
[18] = target: Mitogen-activated protein kinase kinase kinase 10 (Homo sapiens) (UniProt Q02779)
[19] = target: Serine/threonine-protein kinase 38-like (Homo sapiens) (UniProt Q9Y2H1)
Chain of Serine/threonine-protein kinase 38-like (Homo sapiens) (Q9Y2H1 2-464 limits assumed): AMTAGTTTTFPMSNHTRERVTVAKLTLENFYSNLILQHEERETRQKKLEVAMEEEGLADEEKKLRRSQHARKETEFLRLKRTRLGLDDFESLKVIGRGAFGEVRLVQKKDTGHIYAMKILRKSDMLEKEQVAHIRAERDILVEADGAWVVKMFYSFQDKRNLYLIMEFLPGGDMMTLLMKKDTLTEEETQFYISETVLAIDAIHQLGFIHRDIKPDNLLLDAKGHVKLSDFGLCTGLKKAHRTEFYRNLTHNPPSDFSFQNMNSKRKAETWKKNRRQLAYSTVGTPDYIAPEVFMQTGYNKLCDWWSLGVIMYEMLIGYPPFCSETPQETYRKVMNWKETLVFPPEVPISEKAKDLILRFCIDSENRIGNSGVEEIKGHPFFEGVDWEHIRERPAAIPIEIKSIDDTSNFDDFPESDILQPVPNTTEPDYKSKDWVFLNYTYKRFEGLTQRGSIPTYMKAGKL

[20] = target: Phosphatidylinositol 4-kinase beta (Homo sapiens) (UniProt Q9UBF8)
[21] = target: STE20/SPS1-related proline-alanine-rich protein kinase (Homo sapiens) (UniProt Q9UEW8)
[22] = target: Angiopoietin-1 receptor (Homo sapiens) (UniProt Q02763)
[23] = target: Serine/threonine-protein kinase 25 (Homo sapiens) (UniProt O00506)
[24] = target: 5-hydroxytryptamine receptor 1D (Homo sapiens) (UniProt P28221); details: Compound concentration 10.0 uM
[25] = target: Sigma non-opioid intracellular receptor 1 (Homo sapiens, UniProt Q99720); details: Compound concentration 10.0 uM
Chain of Sigma non-opioid intracellular receptor 1 (Q99720 whole entry): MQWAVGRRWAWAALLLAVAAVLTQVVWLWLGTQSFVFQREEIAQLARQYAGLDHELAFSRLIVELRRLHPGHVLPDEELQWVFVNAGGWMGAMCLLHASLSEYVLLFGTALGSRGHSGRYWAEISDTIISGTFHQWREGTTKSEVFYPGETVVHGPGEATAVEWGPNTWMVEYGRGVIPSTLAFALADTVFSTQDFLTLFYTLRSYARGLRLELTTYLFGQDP

[26] = Compound concentration 1000.0 nM
[27] = Compound concentration 100.0 nM

C[C@@H]1CN(c2cc(-c3nn(C)c4ccc(OC5(C)CC5)cc34)ncn2)C[C@H](C)O1 [MLi-2-NC]
Ki [1]: 1070 nM
residual activity [2, 26]: 80%
residual activity [3, 26]: 88%
residual activity [4, 26]: 100%
residual activity [5, 26]: 100%
residual activity [6, 26]: 89%
residual activity [7, 26]: 86%
residual activity [8, 26]: 78%
residual activity [9, 26]: 83%
residual activity [10, 26]: 100%
residual activity [11, 26]: 57%
residual activity [12, 26]: 76%
residual activity [13, 26]: 77%
residual activity [14, 26]: 91%
residual activity [15, 26]: 76%
residual activity [16, 26]: 60%
residual activity [17, 26]: 100%
residual activity [18, 26]: 100%
residual activity [19, 26]: 72%
residual activity [20, 26]: 89%
residual activity [21, 26]: 70%
residual activity [22, 26]: 94%
residual activity [23, 26]: 100%
inhibition [24]: 4.11%
inhibition [25]: 58.2%

C[C@@H]1CN(c2cc(-c3n[nH]c4ccc(OC5(C)CC5)cc34)ncn2)C[C@H](C)O1 [MLi-2]
Ki [1]: 4600 nM
residual activity [2, 27]: 66%
residual activity [3, 27]: 88%
residual activity [4, 27]: 93%
residual activity [5, 27]: 100%
residual activity [6, 27]: 89%
residual activity [7, 27]: 86%
residual activity [8, 27]: 100%
residual activity [9, 27]: 50%
residual activity [10, 27]: 72%
residual activity [11, 27]: 100%
residual activity [12, 27]: 92%
residual activity [13, 27]: 87%
residual activity [14, 27]: 90%
residual activity [15, 27]: 84%
residual activity [16, 27]: 62%
residual activity [17, 27]: 70%
residual activity [18, 27]: 100%
residual activity [19, 27]: 85%
residual activity [20, 27]: 100%
residual activity [21, 27]: 85%
residual activity [22, 27]: 100%
residual activity [23, 27]: 100%
inhibition [24]: -7.94%
inhibition [25]: 35.9%
